Experimental data from PMC10582325 (Frontiers in Pharmacology, 2023).
Where “and” joins values, the source holds several entries; their conditions need not be identical. Identical values can stand only once. Like-named read-outs stand apart in the source and are kept apart here.

Assays:
[1] = Stability of BDQ, M2 and TBI-166 in mice plasma (LC-MS/MS validation)
[2] = Steady-state plasma pharmacokinetics of BDQ, M2 and TBI-166 in BALB/c mice; details: for AUC(0-t): Plasma; for t 1/2: after last dose
[3] = Lung and spleen tissue exposure in BALB/c mice
[4] = Plasma concentration 3 h post dose in murine model of tuberculosis; assay type: in vivo, BALB/c mice infected with M. tuberculosis H37Rv; details: TB model; for plasma concentration after coadministration as percent of BDQ alone: 3 h post dose, p < 0.05; for concentration at 3 h: female, BALB/c, mouse, plasma, read-out: Mean plasma concentration at three hours after oral administration
phospholipidosis = details: cited from earlier work
rCYP3A4 = biological target: T1, rCYP3A4 (Homo sapiens, UniProt P08684); experiment: Reaction phenotyping of BDQ in recombinant P450 enzymes (rCYPs method); assay type: in vitro ADME; details: BDQ 1 μM, CYP3A4
T1 construct: purchased BD Gentest (Woburn, MA, United States)
T1 sequence (P08684 whole entry): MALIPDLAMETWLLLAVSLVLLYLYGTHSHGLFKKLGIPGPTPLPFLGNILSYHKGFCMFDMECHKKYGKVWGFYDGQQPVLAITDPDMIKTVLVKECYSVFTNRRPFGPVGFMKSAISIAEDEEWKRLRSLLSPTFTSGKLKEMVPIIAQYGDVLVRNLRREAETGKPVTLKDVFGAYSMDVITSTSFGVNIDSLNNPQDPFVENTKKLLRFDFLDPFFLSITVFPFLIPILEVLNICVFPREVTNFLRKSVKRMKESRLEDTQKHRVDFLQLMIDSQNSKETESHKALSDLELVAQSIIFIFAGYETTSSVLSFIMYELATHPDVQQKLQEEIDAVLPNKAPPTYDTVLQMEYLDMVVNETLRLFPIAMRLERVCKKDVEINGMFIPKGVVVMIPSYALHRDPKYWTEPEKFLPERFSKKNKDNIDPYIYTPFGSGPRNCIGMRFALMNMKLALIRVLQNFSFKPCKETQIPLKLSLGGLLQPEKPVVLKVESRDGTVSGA

[5] = mouse, in vivo
rCYP2C19 = biological target: T2, rCYP2C19 (Homo sapiens, UniProt P33261); experiment: Reaction phenotyping of BDQ in recombinant P450 enzymes (rCYPs method); assay type: in vitro ADME; details: BDQ 1 μM, CYP2C19
T2 construct: purchased BD Gentest (Woburn, MA, United States)
T2 sequence (P33261 whole entry): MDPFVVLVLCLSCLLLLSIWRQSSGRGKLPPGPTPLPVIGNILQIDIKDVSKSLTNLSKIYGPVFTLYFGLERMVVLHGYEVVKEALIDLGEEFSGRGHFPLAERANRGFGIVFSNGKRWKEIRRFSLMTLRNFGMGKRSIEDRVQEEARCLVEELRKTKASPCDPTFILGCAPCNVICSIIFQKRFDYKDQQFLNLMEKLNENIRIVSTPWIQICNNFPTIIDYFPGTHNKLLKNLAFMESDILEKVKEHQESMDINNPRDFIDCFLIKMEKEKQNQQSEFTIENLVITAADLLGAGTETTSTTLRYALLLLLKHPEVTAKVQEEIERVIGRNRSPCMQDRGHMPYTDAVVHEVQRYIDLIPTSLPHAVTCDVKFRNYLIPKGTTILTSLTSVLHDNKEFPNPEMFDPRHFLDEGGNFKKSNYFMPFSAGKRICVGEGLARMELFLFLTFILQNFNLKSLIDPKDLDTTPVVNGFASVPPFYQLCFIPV

[6] = male, BALB/c, mouse, in vivo
rCYP2C8 = biological target: T3, rCYP2C8 (Homo sapiens, UniProt P10632); experiment: Reaction phenotyping of BDQ in recombinant P450 enzymes (rCYPs method); assay type: in vitro ADME; details: BDQ 1 μM, CYP2C8
T3 construct: purchased BD Gentest (Woburn, MA, United States)
T3 sequence (P10632 1-490): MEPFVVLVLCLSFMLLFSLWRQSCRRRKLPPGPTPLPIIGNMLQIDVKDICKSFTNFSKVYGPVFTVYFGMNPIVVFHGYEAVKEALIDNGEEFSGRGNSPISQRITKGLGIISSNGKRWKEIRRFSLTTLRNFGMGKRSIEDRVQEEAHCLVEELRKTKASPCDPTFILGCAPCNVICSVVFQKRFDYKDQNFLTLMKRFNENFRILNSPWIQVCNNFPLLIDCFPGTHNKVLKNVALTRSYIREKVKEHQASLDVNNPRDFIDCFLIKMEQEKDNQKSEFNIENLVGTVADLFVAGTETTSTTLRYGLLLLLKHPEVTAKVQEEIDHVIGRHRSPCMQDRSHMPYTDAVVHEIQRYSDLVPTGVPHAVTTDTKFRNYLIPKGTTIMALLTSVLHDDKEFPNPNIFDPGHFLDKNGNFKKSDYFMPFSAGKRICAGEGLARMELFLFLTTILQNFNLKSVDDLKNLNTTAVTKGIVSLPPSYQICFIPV

rCYP3A5 = biological target: T4, rCYP3A5 (Homo sapiens, UniProt P20815); experiment: as above; assay type: in vitro ADME; details: BDQ 1 μM, CYP3A5
T4 construct: purchased BD Gentest (Woburn, MA, United States)
T4 sequence (P20815 whole entry): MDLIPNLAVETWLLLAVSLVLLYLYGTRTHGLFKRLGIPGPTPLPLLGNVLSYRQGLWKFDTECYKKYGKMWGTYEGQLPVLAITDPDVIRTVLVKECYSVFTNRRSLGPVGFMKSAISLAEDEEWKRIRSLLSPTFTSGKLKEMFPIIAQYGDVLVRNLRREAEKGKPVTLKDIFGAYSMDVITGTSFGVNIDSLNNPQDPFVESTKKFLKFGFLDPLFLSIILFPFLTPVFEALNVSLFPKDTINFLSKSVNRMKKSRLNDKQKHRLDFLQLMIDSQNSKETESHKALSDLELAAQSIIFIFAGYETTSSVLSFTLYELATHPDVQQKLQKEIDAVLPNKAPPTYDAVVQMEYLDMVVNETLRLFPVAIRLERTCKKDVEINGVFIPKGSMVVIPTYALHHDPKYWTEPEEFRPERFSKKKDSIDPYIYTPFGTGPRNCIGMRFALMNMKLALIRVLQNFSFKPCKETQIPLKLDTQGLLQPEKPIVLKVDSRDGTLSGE

in vivo = details: male, BALB/c, mouse, tissue-to-plasma ratio (Kp)
rCYP2A6 = biological target: T5, rCYP2A6 (Homo sapiens, UniProt P11509); experiment: Reaction phenotyping of BDQ in recombinant P450 enzymes (rCYPs method); assay type: in vitro ADME; details: BDQ 1 μM, M2 formation, CYP2A6
T5 construct: purchased BD Gentest (Woburn, MA, United States)
T5 sequence (P11509 1-494): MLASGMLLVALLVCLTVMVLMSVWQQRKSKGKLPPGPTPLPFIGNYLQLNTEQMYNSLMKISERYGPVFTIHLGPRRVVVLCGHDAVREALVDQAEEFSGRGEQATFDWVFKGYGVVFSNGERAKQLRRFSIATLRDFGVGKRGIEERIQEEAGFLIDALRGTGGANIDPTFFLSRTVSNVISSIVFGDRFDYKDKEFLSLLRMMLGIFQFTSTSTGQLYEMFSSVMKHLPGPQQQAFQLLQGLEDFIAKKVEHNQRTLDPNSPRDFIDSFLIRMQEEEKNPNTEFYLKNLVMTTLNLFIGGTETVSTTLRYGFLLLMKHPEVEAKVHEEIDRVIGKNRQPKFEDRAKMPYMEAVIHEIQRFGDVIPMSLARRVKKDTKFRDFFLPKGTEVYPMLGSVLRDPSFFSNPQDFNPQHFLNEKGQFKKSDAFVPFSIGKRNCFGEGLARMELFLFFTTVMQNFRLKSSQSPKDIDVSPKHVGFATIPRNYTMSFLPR

CYP3A4/5 = details: cited from earlier work
[7] = TBI-166 group (20 mg/kg), W4, LLOQ 5, 5, 15 ng/mL for BDQ, TBI-166, M2
[8] = TBI-166 group (20 mg/kg), W8, LLOQ 5, 5, 15 ng/mL for BDQ, TBI-166, M2

CNCC[C@@](O)(c1cccc2ccccc12)[C@H](c1ccccc1)c1cc2cc(Br)ccc2nc1OC [M2, N-desmethyl-bedaquiline]
Stability in mice plasma, RE ([1]; 4℃ for 24 h, 45 ng/mL): 5.42%
Stability in mice plasma, RE ([1]; 4℃ for 24 h, 225 ng/mL): 13.08%
Stability in mice plasma, RE ([1]; 4℃ for 24 h, 2250 ng/mL): 9.97%
Stability in mice plasma, RE ([1]; -40℃ for 7 d, 45 ng/mL): 15.73%
Stability in mice plasma, RE ([1]; -40℃ for 7 d, 225 ng/mL): 2.77%
Stability in mice plasma, RE ([1]; -40℃ for 7 d, 2250 ng/mL): 9.33%
Stability in mice plasma, RE ([1]; Freeze-thaw three cycles, 45 ng/mL): 12.58%
Stability in mice plasma, RE ([1]; Freeze-thaw three cycles, 225 ng/mL): 17.75%
Stability in mice plasma, RE ([1]; Freeze-thaw three cycles, 2250 ng/mL): 6.90%
Stability in mice plasma, RE ([1]; In auto-sample for 24 h, 45 ng/mL): 14.04%
Stability in mice plasma, RE ([1]; In auto-sample for 24 h, 225 ng/mL): 17.58%
Stability in mice plasma, RE ([1]; In auto-sample for 24 h, 2250 ng/mL): 4.83%
Stability in mice plasma, RE ([1]; Room temperature for 24 h, 45 ng/mL): 9.38%
Stability in mice plasma, RE ([1]; Room temperature for 24 h, 225 ng/mL): 17.30%
Stability in mice plasma, RE ([1]; Room temperature for 24 h, 2250 ng/mL): 4.03%
mean plasma concentration in BDQ + TBI-166 group as percent of BDQ group ([2]; 1 h post dose): 85%
mean plasma concentration ([2]; 1 h post dose (so in the source), BDQ group): 1,438 ng/mL
mean plasma concentration ([2]; 1 h post dose, BDQ + TBI-166 group): 1,235.36 ng/mL
mean plasma concentration in BDQ + TBI-166 group as percent of BDQ group ([2]; 3 h post dose): 75%
mean plasma concentration ([2]; 3 h post dose, BDQ + TBI-166 group): 1,084.84 ng/mL
mean plasma concentration ([2]; 3 h post dose, BDQ group): 1,438.31 ng/mL
area under the curve ratio (AUCR) ([2]; BDQ + TBI-166 group vs BDQ group): 0.66
AUC(0-t) ([2]; BDQ + TBI-166 group (Table S4)): 76250 ± 8100 ng·h/mL
AUC(0-t) ([2]; BDQ group (Table S4)): 115730 ± 25440 ng·h/mL
AUC(0-last) ([2]; plasma, BDQ + TBI-166 group): 76,310 ± 5,901 h·ng/mL
AUC(0-last) as percent of single-drug group ([2]; plasma, BDQ + TBI-166 group): 66%
AUC(0-∞) ([2]; plasma, BDQ + TBI-166 group): 89,814 h·ng/mL
C max ([2]; plasma, BDQ + TBI-166 group): 1,235.36 ± 22.74 ng/mL
MRT(0-t) ([2]; plasma, BDQ + TBI-166 group): 51.71 h
T max ([2]; plasma, BDQ + TBI-166 group): 1 h
t 1/2 ([2]; plasma, BDQ + TBI-166 group (BDQ 25 mg/kg + TBI-166 20 mg/kg, gavage QD 21 days)): 57.47 h
t 1/2 ([2]; plasma, BDQ group (BDQ 25 mg/kg alone, gavage QD 21 days)): 64.27 h
AUC(0-last) ([2]; plasma, BDQ group (BDQ alone)): 115,704 ± 19,589 h·ng/mL
AUC(0-∞) ([2]; plasma, BDQ group (BDQ alone)): 134,430 h·ng/mL
C max ([2]; plasma, BDQ group (BDQ alone)): 1,438.31 ± 127.21 ng/mL
MRT(0-t) ([2]; plasma, BDQ group (BDQ alone)): 56.46 h
T max ([2]; plasma, BDQ group (BDQ alone)): 3 h
AUC(0-last) as percent of single-drug group ([2]; plasma, BDQ group (reference)): 100%
decrease of AUC0-last after coadministration of BDQ with TBI-166 ([2]; plasma, vs BDQ group): 34%
AUC(0-t) ([3]; Lung, BDQ + TBI-166 group): 4940.02 ± 756.58 µg·h/g
tissue-to-plasma ratio (Kp) ([3]; Lung, BDQ + TBI-166 group): 64.79
AUC(0-t) ([3]; Lung, BDQ group): 4827.39 ± 818.42 µg·h/g
tissue-to-plasma ratio (Kp) ([3]; Lung, BDQ group): 41.72
AUC(0-t) ([3]; Spleen, BDQ + TBI-166 group): 6358.44 ± 1054.47 µg·h/g
tissue-to-plasma ratio (Kp) ([3]; Spleen, BDQ + TBI-166 group): 83.39
AUC(0-t) ([3]; Spleen, BDQ group): 4703.39 ± 1052.83 µg·h/g
tissue-to-plasma ratio (Kp) ([3]; Spleen, BDQ group): 40.65
exposure (AUC0-t) with vs without coadministration ([3]; lungs): similar
increase of exposure (AUC0-t) after coadministration of BDQ with TBI-166 ([3]; spleens): 1.5 fold
plasma concentration after coadministration as percent of BDQ alone ([4]; 4 weeks): 87%
plasma concentration after coadministration as percent of BDQ alone ([4]; 8 weeks): 79%
Mean plasma concentration at three hours after oral administration ([4]; BDQ + TBI-166 group, W4): 970 ng/mL and 969.68 ± 206.81 ng/mL
Mean plasma concentration at three hours after oral administration ([4]; BDQ + TBI-166 group, W8): 948 ng/mL and 948.31 ± 60.21 ng/mL
Mean plasma concentration at three hours after oral administration [4, 7]: <LLOQ
Mean plasma concentration at three hours after oral administration [4, 8]: <LLOQ
higher cardiotoxicity by inducing phospholipidosis compared with BDQ (phospholipidosis): 50 times

COc1nc2ccc(Br)cc2cc1[C@@H](c1ccccc1)[C@@](O)(CCN(C)C)c1cccc2ccccc12 [BDQ, Bedaquiline]
f m (fraction of drug metabolism by individual CYP enzyme) (rCYP3A4): 73.1%
exposure (AUC0-t) with vs without coadministration [5]: similar
f m (fraction of drug metabolism by individual CYP enzyme) (rCYP2C19): 5.7%
AUC(0-last) as percent of single-drug group [6]: 100%
MRT(0-t) ([6]; po, 25 mg/kg): 52.80 h
f m (fraction of drug metabolism by individual CYP enzyme) (rCYP2C8): 8.8%
f m (fraction of drug metabolism by individual CYP enzyme) (rCYP3A5): 3.5%
Kp (in vivo): 19.7
Mean plasma concentration at three hours after oral administration [4, 7]: <LLOQ
Mean plasma concentration at three hours after oral administration [4, 8]: <LLOQ
concentration at 3 h ([4]; oral, 25 mg/kg, BDQ group (25 mg/kg), W4, LLOQ 5, 5, 15 ng/mL for BDQ, TBI-166, M2): 657 ± 142 ng/mL
concentration at 3 h ([4]; oral, 25 mg/kg, BDQ group (25 mg/kg), W8, LLOQ 5, 5, 15 ng/mL for BDQ, TBI-166, M2): 920 ± 126 ng/mL
concentration at 3 h ([4]; po, BDQ + TBI-166 group, W4): 647 ± 199 ng/mL
concentration at 3 h ([4]; po, BDQ + TBI-166 group, W8): 889 ± 171 ng/mL
f m (fraction of drug metabolism by individual CYP enzyme) (rCYP2A6): 3.1%

CC(C)/N=c1\cc2n(-c3ccc(Cl)cc3)c3ccccc3nc-2cc1Nc1ccc(Cl)cc1 [clofazimine]
CYP3A4/5 inhibitor strength (CYP3A4/5): moderate-to-strong
